# Key:
# Assay type in all cases: functional
# [1] = system: Mycobacterium tuberculosis variant bovis; assay: Antibacterial activity against Mycobacterium bovis Ravenel
# [2] = system: Mycobacterium tuberculosis variant bovis; assay: Antibacterial activity against Mycobacterium bovis after 20 hrs by NCCLS-based two-fold broth dilution method
# [3] = system: Mycobacterium tuberculosis variant bovis; assay: Antibacterial activity against Mycobacterium bovis
Compound,MIC [1] [mg/L],further results
CCCCCCCOc1ccc(NC(=O)C2=CCN(C)[C@@H]([C@H](O[C@@H]3O[C@H](CN)[C@@H](O)[C@H]3O)[C@H]3O[C@@H](n4ccc(=O)[nH]c4=O)[C@H](O)[C@@H]3O)C(=O)N2C)cc1,0.78,–
CCCCCCCCCCCCCCNC(=O)C1=CCN(C)[C@@H]([C@H](O[C@@H]2O[C@H](CN)[C@@H](O)[C@H]2O)[C@H]2O[C@@H](n3ccc(=O)[nH]c3=O)[C@H](O)[C@@H]2O)C(=O)N1C,1.56,–
CCCCCCCc1ccc(NC(=O)C2=CCN(C)[C@@H]([C@H](O[C@@H]3O[C@H](CN)[C@@H](O)[C@H]3O)[C@H]3O[C@@H](n4ccc(=O)[nH]c4=O)[C@H](O)[C@@H]3O)C(=O)N2C)cc1,0.78,–
CCCCCNC(=O)C1=CCN(C)[C@@H]([C@H](O[C@@H]2O[C@H](CN)[C@@H](O)[C@H]2O)[C@H]2O[C@@H](n3ccc(=O)[nH]c3=O)[C@H](O)[C@@H]2O)C(=O)N1C,6.25,–
CCCCCCCCNC(=O)C1=CCN(C)[C@@H]([C@H](O[C@@H]2O[C@H](CN)[C@@H](O)[C@H]2O)[C@H]2O[C@@H](n3ccc(=O)[nH]c3=O)[C@H](O)[C@@H]2O)C(=O)N1C,1.56,–
CCCCc1ccc(NC(=O)C2=CCN[C@@H]([C@H](O[C@@H]3O[C@H](CN)[C@@H](O)[C@H]3O)[C@H]3O[C@@H](n4ccc(=O)[nH]c4=O)[C@H](O)[C@@H]3O)C(=O)N2C)cc1,3.13,–
CCCCCCCCCCCNC(=O)C1=CCN(C)[C@@H]([C@H](O[C@@H]2O[C@H](CN)[C@@H](O)[C@H]2O)[C@H]2O[C@@H](n3ccc(=O)[nH]c3=O)[C@H](O)[C@@H]2O)C(=O)N1C,1.56,–
CCc1ccc(NC(=O)C2=CCN(C)[C@@H]([C@H](O[C@@H]3O[C@H](CN)[C@@H](O)[C@H]3O)[C@H]3O[C@@H](n4ccc(=O)[nH]c4=O)[C@H](O)[C@@H]3O)C(=O)N2C)cc1,1.56,–
CCCCCCCCCCOC(=O)C1=CCN(C)[C@@H]([C@H](O[C@@H]2O[C@H](CN)[C@@H](O)[C@H]2O)[C@H]2O[C@@H](n3ccc(=O)[nH]c3=O)[C@H](O)[C@@H]2O)C(=O)N1C,12.5,–
CCCCCCCCCCCCCCCCCCCCCNC(=O)C1=CCN(C)[C@@H]([C@H](O[C@@H]2O[C@H](CN)[C@@H](O)[C@H]2O)[C@H]2O[C@@H](n3ccc(=O)[nH]c3=O)[C@H](O)[C@@H]2O)C(=O)N1C,1.56,–
CCCCCCCCCCCCCCCCNC(=O)C1=CCN(C)[C@@H]([C@H](O[C@@H]2O[C@H](CN)[C@@H](O)[C@H]2O)[C@H]2O[C@@H](n3ccc(=O)[nH]c3=O)[C@H](O)[C@@H]2O)C(=O)N1C,3.13,–
CCCCCCCCCCCCCCCCCCNC(=O)C1=CCN(C)[C@@H]([C@H](O[C@@H]2O[C@H](CN)[C@@H](O)[C@H]2O)[C@H]2O[C@@H](n3ccc(=O)[nH]c3=O)[C@H](O)[C@@H]2O)C(=O)N1C,1.56,–
CCCCCCCCCNC(=O)C1=CCN(C)[C@@H]([C@H](O[C@@H]2O[C@H](CN)[C@@H](O)[C@H]2O)[C@H]2O[C@@H](n3ccc(=O)[nH]c3=O)[C@H](O)[C@@H]2O)C(=O)N1C,1.56,–
CC/C=C/CCCCCCCCCCOC(=O)C1=CCN(C)[C@@H]([C@H](O[C@@H]2O[C@H](CN)[C@@H](O)[C@H]2O)[C@H]2O[C@@H](n3ccc(=O)[nH]c3=O)[C@H](O)[C@@H]2O)C(=O)N1C,6.25,–
CCCCOc1ccc(NC(=O)C2=CCN(C)[C@@H]([C@H](O[C@@H]3O[C@H](CN)[C@@H](O)[C@H]3O)[C@H]3O[C@@H](n4ccc(=O)[nH]c4=O)[C@H](O)[C@@H]3O)C(=O)N2C)cc1,3.13,–
CCCCc1ccc(NC(=O)C2=CCN(C)[C@@H]([C@H](O[C@@H]3O[C@H](CN)[C@@H](O)[C@H]3O)[C@H]3O[C@@H](n4ccc(=O)[nH]c4=O)[C@H](O)[C@@H]3O)C(=O)N2C)cc1,–,MIC [2]: 3.13 mg/L
CCCCCCCCCCCCCCCCCCOC(=O)C1=CCN(C)[C@@H]([C@H](O[C@@H]2O[C@H](CN)[C@@H](O)[C@H]2O)[C@H]2O[C@@H](n3ccc(=O)[nH]c3=O)[C@H](O)[C@@H]2O)C(=O)N1C,3.13,–

Compound,MIC [1] [mg/L],further results
CCCCCCCCCCCCNC(=O)C1=CCN(C)[C@@H]([C@H](O[C@@H]2O[C@H](CN)[C@@H](O)[C@H]2O)[C@H]2O[C@@H](n3ccc(=O)[nH]c3=O)[C@H](O)[C@@H]2O)C(=O)N1C,1.56,–
CCCCCCCCCCCCCCCNC(=O)C1=CCN(C)[C@@H]([C@H](O[C@@H]2O[C@H](CN)[C@@H](O)[C@H]2O)[C@H]2O[C@@H](n3ccc(=O)[nH]c3=O)[C@H](O)[C@@H]2O)C(=O)N1C,1.56,–
CCCCCCCCCCCCCCCCCCCCNC(=O)C1=CCN(C)[C@@H]([C@H](O[C@@H]2O[C@H](CN)[C@@H](O)[C@H]2O)[C@H]2O[C@@H](n3ccc(=O)[nH]c3=O)[C@H](O)[C@@H]2O)C(=O)N1C,0.78,–
CCCCCCCCCCCCCCc1ccc(NC(=O)C2=CCN(C)[C@@H]([C@H](O[C@@H]3O[C@H](CN)[C@@H](O)[C@H]3O)[C@H]3O[C@@H](n4ccc(=O)[nH]c4=O)[C@H](O)[C@@H]3O)C(=O)N2C)cc1,3.13,–
CO[C@@H]1[C@@H](OC)[C@H](C)O[C@@H](OC(=O)C[C@@H](C)CC(=O)O[C@@H](CCCCCCCCCCC(C)C)CC(=O)O[C@H]2CN(C)[C@@H]([C@H](O[C@@H]3O[C@H](CN)[C@@H](O)[C@H]3O)[C@H]3O[C@@H](n4ccc(=O)[nH]c4=O)[C@H](O)[C@@H]3O)C(=O)N(C)[C@@H]2C(=O)O)[C@@H]1OC,–,MIC [3]: 3.13 mg/L
CN1C(=O)[C@H]([C@H](O[C@@H]2O[C@H](CN)[C@@H](O)[C@H]2O)[C@H]2O[C@@H](n3ccc(=O)[nH]c3=O)[C@H](O)[C@@H]2O)N(C)CC=C1C(=O)Nc1ccc(C2CCCCC2)cc1,1.56,–
C=CCCCCCCCCCOC(=O)C1=CCN(C)[C@@H]([C@H](O[C@@H]2O[C@H](CN)[C@@H](O)[C@H]2O)[C@H]2O[C@@H](n3ccc(=O)[nH]c3=O)[C@H](O)[C@@H]2O)C(=O)N1C,12.5,–
CN1C(=O)[C@H]([C@H](O[C@@H]2O[C@H](CN)[C@@H](O)[C@H]2O)[C@H]2O[C@@H](n3ccc(=O)[nH]c3=O)[C@H](O)[C@@H]2O)N(C)CC=C1C(=O)NC1CCCCCCCCCCC1,1.56,–
CCCCCCCC/C=C/CCCCCCCCNC(=O)C1=CCN(C)[C@@H]([C@H](O[C@@H]2O[C@H](CN)[C@@H](O)[C@H]2O)[C@H]2O[C@@H](n3ccc(=O)[nH]c3=O)[C@H](O)[C@@H]2O)C(=O)N1C,3.13,–
CCCCCCCCCCNC(=O)C1=CCN(C)[C@@H]([C@H](O[C@@H]2O[C@H](CN)[C@@H](O)[C@H]2O)[C@H]2O[C@@H](n3ccc(=O)[nH]c3=O)[C@H](O)[C@@H]2O)C(=O)N1C,1.56,–
CCCCCCCCCCCCCCCCCNC(=O)C1=CCN(C)[C@@H]([C@H](O[C@@H]2O[C@H](CN)[C@@H](O)[C@H]2O)[C@H]2O[C@@H](n3ccc(=O)[nH]c3=O)[C@H](O)[C@@H]2O)C(=O)N1C,1.56,–
CCCCCCCCCCCCCOC(=O)C1=CCN(C)[C@@H]([C@H](O[C@@H]2O[C@H](CN)[C@@H](O)[C@H]2O)[C@H]2O[C@@H](n3ccc(=O)[nH]c3=O)[C@H](O)[C@@H]2O)C(=O)N1C,3.13,–
CCCCCCCNC(=O)C1=CCN(C)[C@@H]([C@H](O[C@@H]2O[C@H](CN)[C@@H](O)[C@H]2O)[C@H]2O[C@@H](n3ccc(=O)[nH]c3=O)[C@H](O)[C@@H]2O)C(=O)N1C,1.56,–
CCCCCCCCCCCCCCCCCCCNC(=O)C1=CCN(C)[C@@H]([C@H](O[C@@H]2O[C@H](CN)[C@@H](O)[C@H]2O)[C@H]2O[C@@H](n3ccc(=O)[nH]c3=O)[C@H](O)[C@@H]2O)C(=O)N1C,1.56,–
CCCCCCCCCCCCCNC(=O)C1=CCN(C)[C@@H]([C@H](O[C@@H]2O[C@H](CN)[C@@H](O)[C@H]2O)[C@H]2O[C@@H](n3ccc(=O)[nH]c3=O)[C@H](O)[C@@H]2O)C(=O)N1C,1.56,–
CCCCCCc1ccc(NC(=O)C2=CCN(C)[C@@H]([C@H](O[C@@H]3O[C@H](CN)[C@@H](O)[C@H]3O)[C@H]3O[C@@H](n4ccc(=O)[nH]c4=O)[C@H](O)[C@@H]3O)C(=O)N2C)cc1,0.2,–
CCCCCCNC(=O)C1=CCN(C)[C@@H]([C@H](O[C@@H]2O[C@H](CN)[C@@H](O)[C@H]2O)[C@H]2O[C@@H](n3ccc(=O)[nH]c3=O)[C@H](O)[C@@H]2O)C(=O)N1C,3.13,–
